Entries after “also recorded” stand apart in the source; their conditions may differ. Peptide text beside a SMILES is read from it. * marks the point of attachment. Cbz = O=C(OCc1ccccc1)*
How the values were obtained:
[1] = system: osteoporosis mouse model; test: Osteoporosis mouse model induced by high dose vitamin D (micro CT, Trichrome staining, TRAP staining of calvarial); type: in vivo, mice (C57BL/6)
Experimental: Normal mice (C57BL/6) were subcutaneously injected with high dose vitamin D (60×10^4 IU/kg) to obtain osteoporosis mouse model, and monitored during 10 days after first injection. High dose vitamin D activates osteoclasts to reduce mouse bone mass.
(§1) MC3T3E1 cells were treated with 0, 5, 10, 25 and 50 μM of glyceollin during induction of cellular differentiation. RAW264.7 cells were treated with 0, 5, 10 and 25 μM of glyceollin during induction of cellular differentiation. Osteoblasts isolated from mouse calvarial were treated with 0, 10 and 20 μM of glyceollin during induction of cellular differentiation. Osteoporosis mice induced by high dose vitamin D were daily injected 0, 0.5 and 5 μg/kg of glyceollin for 9 days.
To elucidate in vivo inhibitory effect of glyceollin on differentiation of osteoclasts which had been confirmed in vitro, osteoporosis mouse model injected with high dose vitamin D one time a day for 3 days. The mice treated with glyceollins one time a day for 9 days were sacrificed at 10 days after first injection and calvarial was observed by micro CT analysis, Trichrome staining and TRAP staining.

[2] = system: MC3T3E1 cells; test: Osteoblast proliferation: morphology, cell number and MTT analysis of glyceollin-treated MC3T3E1 cells; type: cell-based, mouse; conditions: vs untreated cells
Experimental: (§2) Osteoblasts isolated from calvarial of 18.5 days old mice and mouse MC3T3E1 cells were cultured in alpha-MEM containing 10% FBS at 37° C. in a humidified atmosphere containing 5% CO2. To induce differentiation of osteoblasts and MC3T3E1 cells, 50 μg/ml of ascorbic acid and 10 mM of beta-glycerophosphate are added to alpha-MEM containing 10% FBS. RAW264.7 (murine monocyte/macrophage) cells were cultured in D-MEM containing 10% FBS, and RANKL is added to alpha-MEM containing 10% FBS to induce differentiation to osteoclasts.
(§3) To investigate the function of glyceollin on osteoblasts proliferation, morphology and number of glyceollin-treated MC3T3E1 cells were analyzed and MTT analysis was carried out.

[3] = system: Runx2; test: Runx2 protein and mRNA level in MC3T3E1 cells during induction of differentiation; type: cell-based, mouse
Experimental: as §2, §1, §3
To investigate whether the decrease of Runx2 protein is due to decrease of Runx2 mRNA, mRNA expression patterns were measured after treatment of glyceollin.
The Runx2 protein level decreased by glyceollin was recovered by MG132 (FIG. 1f).

[4] = system: RAW264.7 cells; test: Differentiation of RAW264.7 cells to osteoclasts by TRAP staining; type: cell-based, murine; conditions: RANKL-induced, 0, 5, 10 and 25 μM glyceollin, TRAP stained 4 days after
Experimental: as §2, §1
RAW264.7 cells were treated with 0, 5, 10 and 25 μM of glyceollin during induction of differentiation, and then TRAP stained 4 days after to analyze osteoclasts.

[5] = system: osteoblasts isolated from mouse calvarial; test: Proteins and mRNAs related to osteoblast differentiation (Runx2, osteocalcin, Rankl, Opg) in osteoblasts isolated from mouse calvarial; type: cell-based
Experimental: as §2, §1
Proteins and mRNAs related to osteoblast differentiation were measured in osteoblasts isolated from mouse calvarial which were treated with 0, 10 and 20 μM of glyceollin.
Consequently, Rankl/Opg ratio was decreased by glyceollins in osteoblast differentiation (FIG. 2c).

[6] = system: osteoblasts isolated from mouse calvarial; test: Osteoblast differentiation by ALP staining, Alizarin Red staining and calcium contents; type: cell-based; conditions: 0, 10 and 20 μM glyceollin
Experimental: as §2, §1
Osteoblasts isolated from mouse calvarial were treated with 0, 10 and 20 μM of glyceollin during induction of cellular differentiation, and differentiation was analyzed by ALP staining (7 days after differentiation) and Alizarin Red staining (21 days after differentiation).
In addition, calcium contents of osteoblasts (21 days after differentiation) were measured and reduction of calcium was observed as glyceollin concentration increased (FIG. 3c).

[7] = calvarial micro CT, 0, 0.5 and 5 μg/kg glyceollin daily for 9 days, sacrificed at 10 days
[8] = calvarial, osteoporosis mouse model by high dose vitamin D
[9] = 10 and 20 μM glyceollin during cellular proliferation
[10] = mouse calvarial osteoblasts, 0, 10 and 20 μM glyceollin
[11] = mouse calvarial osteoblasts, real-time PCR, 0, 10 and 20 μM glyceollin, listed as glyceollins

glyceollin
osteoporosis of mouse calvarial mediated by high dose vitamin D (BMC, BMD and TMD analysis after CT) ([1]; administration of glyceollin): recovered | bone mineral contents (BMC) [1, 7]: increased by glyceollin in dose-dependent manner | bone mineral density (BMD) [1, 7]: increased by glyceollin in dose-dependent manner | tissue mineral contents (TMC) [1, 7]: increased by glyceollin in dose-dependent manner | collagen generation (Trichrome staining) [1, 8]: increased | number of osteoclasts (TRAP staining) [1, 8]: decrease | morphology of MC3T3E1 cells ([2]; 20 μM glyceollin during cellular proliferation): similar; also recorded: no significant difference | MTT assay for MC3T3-E1 cells [2, 9]: similar; also recorded: no significant difference | number of MC3T3E1 cells [2, 9]: similar; also recorded: no significant difference | Runx2 protein level ([3]; MC3T3E1 cells, 0, 5, 10, 25 and 50 μM glyceollin during induction of differentiation): decreased as the concentration of glyceollin increased | Runx2 mRNA level ([3]; MC3T3E1 cells, 10 and 20 μM glyceollin during induction of differentiation): not changed; also recorded: not affected | differentiation to osteoclasts (TRAP stained osteoclasts) [4]: inhibited as the concentration of glyceollin increased; also recorded: reduced by glyceollin in dose-dependent manner | Runx2 mRNA level [5, 10]: not changed; also recorded: not affected | osteocalcin mRNA level (differentiation marker of osteoblasts) [5, 10]: decreased according to the concentration of glyceollin; also recorded: Dose-dependent reduction | Runx2 protein level ([5]; mouse calvarial osteoblasts, 0, 10 and 20 μM glyceollin, D21): decreased by glyceollin in dose-dependent manner | Rankl/Opg ratio ([5]; mouse calvarial osteoblasts, osteoblast differentiation): decreased | Rankl mRNA level ([5]; mouse calvarial osteoblasts, real-time PCR, 0, 10 and 20 μM glyceollin): decreased according to the concentration of glyceollin | Opg mRNA level [5, 11]: not affected or slightly increased | Rankl mRNA level [5, 11]: down-regulated | differentiation of osteoblast by ALP staining ([6]; 7 days after differentiation): inhibited by glyceollin in dose-dependent manner | calcium contents of osteoblasts ([6]; 21 days after differentiation): decreased as the concentration of glyceollin increased; also recorded: reduction | differentiation of osteoblast by Alizarin Red staining ([6]; 21 days after differentiation): inhibited according to the concentration of glyceollin; also recorded: inhibited by glyceollin in dose-dependent manner

CC(C)C[C@@H](C=O)NC(=O)[C@H](CC(C)C)NC(=O)[C@H](CC(C)C)NC(=O)OCc1ccccc1 [MG132, reference compound] (Cbz-Leu-Leu-Leu-aldehyde)
Runx2 protein level decreased by glyceollin, after further treatment with proteasome inhibitor ([3]; MC3T3E1 cells, 20 μM glyceollin plus MG132 vs 20 μM glyceollin only): recovered

Source: patent publication US20130085178A1, “COMPOSITION FOR TREATING BONE DISEASE COMPRISING A GLYCEOLLIN AS AN ACTIVE INGREDIENT” (KYUNGPOOK NATIONAL UNIVERSITY INDUSTRY-ACADEMIC COOPERATION …, priority 2010, published 2013)
